Reference: publication PMC10004267, “Resveratrol, a New Allosteric Effector of Hemoglobin, Enhances Oxygen Supply Efficiency and Improves Adaption to Acute Severe Hypoxia” (Molecules, 2023)

How the values were obtained:
[1] = molecular target: T1, hemoglobin of adult (HbA) (Homo sapiens, UniProt P68871); experiment: SPR (OpenSPR, HbA immobilized), control compound; assay type: binding
T1 construct: gene HBB; HbA tetramer purified from human whole blood; with hemoglobin subunit alpha (HBA1)

[2] = molecular target: T2, hemoglobin of adult (HbA) (Homo sapiens, UniProt P68871+P69905); experiment: SPR (OpenSPR, HbA immobilized on COOH chip, one-to-one model); supported by thermal shift (Tm1) and P50 shift; assay type: binding
T2 construct: gene HBA1; HbA tetramer purified from human whole blood; with hemoglobin subunit beta (HBB)
T2 sequence (P69905 2-142): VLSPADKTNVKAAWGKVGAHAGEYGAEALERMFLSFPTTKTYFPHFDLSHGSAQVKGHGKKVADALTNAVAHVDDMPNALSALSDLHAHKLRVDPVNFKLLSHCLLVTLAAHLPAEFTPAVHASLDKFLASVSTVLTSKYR
T2 sequence (P68871 2-147): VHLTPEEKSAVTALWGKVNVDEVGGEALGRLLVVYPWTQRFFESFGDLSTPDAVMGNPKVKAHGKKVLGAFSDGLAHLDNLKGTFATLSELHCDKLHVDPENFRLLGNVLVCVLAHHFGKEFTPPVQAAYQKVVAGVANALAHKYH

T1 sequence (P68871 2-147): as above
T1 sequence (P69905 2-142 partner): as the sequence (P69905 2-142) above

Question: Which Kd [1] does the source give for `O=C(O)C(COP(=O)(O)O)OP(=O)(O)O` (centres unmarked) [2,3-DPG, 2,3-Diphosphoglycerate] here?
Answer: 462 µM

Question: With `Oc1ccc(/C=C/c2cc(O)cc(O)c2)cc1` [RSV, 3,4′,5-trihydroxy-trans-stilbene] as the molecule, how does the Kd [2] read?
Answer: 48.6 µM
